# According to patent US9163013B2, “Use of 1H-indazole-3-carboxamide compounds as glycogen synthase kinase 3 beta inhibitors” (AZIENDE CHIMICHE RIUNITE ANGELINI FRANCESCO A.C.R.A.F. …, priority 2012, dated 2015):
# Legend:
# PCTAIRE1 kinase (h) = PCTAIRE1 kinase (h) (Homo sapiens (Human), UniProt Q00536); assay: Kinase selectivity panel and IC50 determination; format: biochemical; details: 10 μM, duplicate; read-out: % inhibition of control values, PCTAIRE1 kinase (h)
# Method: (§1) (a) Compound 1 was tested against a panel of 60 kinases in order to assess its selectivity. The assays were chosen taking into consideration the diversity of assay families.
# (§2) Human recombinant kinases were incubated in the presence of specific peptide substrates plus ATP for different times (10, 15, 30, 60 or 90 minutes) at 22° C. Phosphorylated substrate was detected by LANCE or HTRF technology (CISBIO, MA, USA).
# (§3) Compound 1 was tested at 10 μM in duplicate.
# (§4) The results are expressed as a percent of inhibition of control specific activity obtained in the presence of the test compound 1 and are reported in the following Table 5.
# (§5) Compound 1 was also assayed to determine the IC50 values for three different kinases (PCTAIRE1, DYRK1a, and CDK2) in comparison to Gsk3β. The assay was conducted with the same method described above in test I, second assay.
# (§6) (b) Compounds 7, 12, 21 and 24 were tested against the same panel of 60 kinases under the same conditions described above for compound 1.
# (§7) The results are expressed as a percent of inhibition of control specific activity obtained in the presence of the test compounds and are reported in the following Table 6.
# DYRK1a (h) = DYRK1a (h) (Homo sapiens (Human), UniProt Q13627); assay: Kinase selectivity panel and IC50 determination; format: biochemical; details: 10 μM, duplicate; read-out: % inhibition of control values, DYRK1a (h)
# Method: as §1, §2, §3, §4, §5, §6, §7
# CDK2 (h) (cycA) = CDK2 (h) (cycA) (Homo sapiens (Human), UniProt P24941); assay: Kinase selectivity panel and IC50 determination; format: biochemical; details: 10 μM, duplicate; read-out: % inhibition of control values, CDK2 (h) (cycA)
# Method: as §1, §2, §3, §4, §5, §6, §7
# human GSK-3β [1] = target: T1, human GSK-3β (Homo sapiens (Human), UniProt P49841); assay: Activity on human GSK-3β, substrate phosphorylation measured by LANCE technology; format: biochemical; details: LANCE phosphorylation assay; five concentrations 100 μM to 10 nM, duplicate; read-out: IC50
# T1 sequence (P49841 whole entry): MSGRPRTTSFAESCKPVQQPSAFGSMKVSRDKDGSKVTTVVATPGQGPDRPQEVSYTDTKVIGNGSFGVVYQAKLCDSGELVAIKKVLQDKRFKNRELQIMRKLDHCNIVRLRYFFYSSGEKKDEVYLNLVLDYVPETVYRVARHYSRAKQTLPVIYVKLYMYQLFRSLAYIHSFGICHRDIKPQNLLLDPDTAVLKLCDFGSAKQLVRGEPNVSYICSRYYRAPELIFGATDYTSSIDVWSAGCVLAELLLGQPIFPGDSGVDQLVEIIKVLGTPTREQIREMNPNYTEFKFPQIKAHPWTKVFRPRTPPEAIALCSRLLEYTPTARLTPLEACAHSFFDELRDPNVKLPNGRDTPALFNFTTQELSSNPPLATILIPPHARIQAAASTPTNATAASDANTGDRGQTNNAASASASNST
# Method: Activity on human GSK-3β was assessed using the following methods (according to Meijer et al., Chem. Biol., 2003-10:1255-1266).
# In a first screening assay, compounds were tested in duplicate at a concentration of 10 μM.
# Human recombinant enzyme GSK-3β was incubated for 90 minutes at 22° C. in the presence of compounds or vehicle in a reaction buffer containing ATP plus 100 nM unphosphorylated specific substrate peptide (Ulight-[…]-amide). Substrate phosphorylation was measured by LANCE technology (PerkinElmer, Conn., USA).
# The results, reported in the following Table 4, are expressed as a percent of inhibition of control specific activity obtained in the presence of the test compounds (as % inhibition at 10 μm).
# (§8) In a second assay, the same compounds were assayed at five concentrations ranging from 100 μM to 10 nM with ten-fold dilutions in duplicate. Compounds 1 to 7, 9, 11 and 13 to 26 were tested using the same first assay, compounds 8, 10, 12, and 27 to 31 were tested in another assay based on the binding and displacement of AlexaFluor® 647 labeled, ATP-competitive Kinase inhibitor scaffold using LanthaScreen™ TR-FRET technology Eu Kinase assay packet according to manufacturer's instruction (Life Technologies, Italy).
# (§9) The IC50 values (concentration causing a half maximal inhibition of control specific activity), reported in table 4, were determined by non-linear regression analysis of the inhibition curves generated with mean replicate values using Hill equation curve fitting.
# IRK (h) (InsR) = IRK (h) (InsR) (Homo sapiens (Human), UniProt P06213); assay: Kinase selectivity panel; format: biochemical; details: duplicate, read-out: % inhibition of control values, IRK (h) (InsR)
# Chain of IRK (h) (InsR) (P06213 28-1382): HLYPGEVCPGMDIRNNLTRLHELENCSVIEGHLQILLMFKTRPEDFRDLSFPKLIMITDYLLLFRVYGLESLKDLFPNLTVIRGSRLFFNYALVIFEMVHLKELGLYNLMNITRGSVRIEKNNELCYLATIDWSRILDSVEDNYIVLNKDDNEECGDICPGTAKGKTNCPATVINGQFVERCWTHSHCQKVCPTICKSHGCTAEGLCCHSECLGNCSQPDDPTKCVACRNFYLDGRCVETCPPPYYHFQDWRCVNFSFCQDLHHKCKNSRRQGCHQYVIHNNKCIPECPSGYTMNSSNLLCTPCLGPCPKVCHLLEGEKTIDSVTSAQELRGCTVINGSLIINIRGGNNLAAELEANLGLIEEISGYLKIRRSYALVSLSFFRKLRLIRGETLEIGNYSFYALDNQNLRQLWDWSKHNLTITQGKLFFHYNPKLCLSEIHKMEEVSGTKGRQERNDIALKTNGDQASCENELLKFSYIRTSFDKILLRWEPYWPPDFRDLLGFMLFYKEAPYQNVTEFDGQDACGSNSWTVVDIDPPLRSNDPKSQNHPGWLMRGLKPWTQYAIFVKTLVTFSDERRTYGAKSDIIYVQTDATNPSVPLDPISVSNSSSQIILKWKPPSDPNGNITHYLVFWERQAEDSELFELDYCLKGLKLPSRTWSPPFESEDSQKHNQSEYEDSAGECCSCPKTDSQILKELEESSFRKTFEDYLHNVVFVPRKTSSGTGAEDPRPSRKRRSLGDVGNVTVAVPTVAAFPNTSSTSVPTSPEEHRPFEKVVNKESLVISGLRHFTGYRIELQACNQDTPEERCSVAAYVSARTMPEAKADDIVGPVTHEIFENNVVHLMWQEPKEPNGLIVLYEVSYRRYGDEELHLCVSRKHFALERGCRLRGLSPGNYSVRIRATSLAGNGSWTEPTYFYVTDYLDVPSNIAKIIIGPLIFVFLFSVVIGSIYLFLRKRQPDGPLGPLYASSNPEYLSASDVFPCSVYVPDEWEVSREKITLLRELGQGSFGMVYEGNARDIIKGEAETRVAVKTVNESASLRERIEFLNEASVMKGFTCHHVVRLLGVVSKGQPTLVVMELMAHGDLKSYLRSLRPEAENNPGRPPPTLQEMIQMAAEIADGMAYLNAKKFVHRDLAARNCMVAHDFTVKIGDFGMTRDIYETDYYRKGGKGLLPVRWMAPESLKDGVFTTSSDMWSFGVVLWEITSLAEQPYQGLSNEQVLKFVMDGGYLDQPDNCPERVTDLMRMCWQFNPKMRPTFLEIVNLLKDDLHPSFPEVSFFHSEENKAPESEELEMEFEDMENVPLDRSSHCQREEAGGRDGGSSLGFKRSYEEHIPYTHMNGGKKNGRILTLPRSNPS
# Method: as §1, §2, §3, §4, §6, §7
# HGK (h) (MAP4K4) = HGK (h) (MAP4K4) (Homo sapiens (Human), UniProt O95819); assay: Kinase selectivity panel; format: biochemical; details: duplicate, read-out: % inhibition of control values, HGK (h) (MAP4K4)
# Chain of HGK (h) (MAP4K4) (O95819 whole entry): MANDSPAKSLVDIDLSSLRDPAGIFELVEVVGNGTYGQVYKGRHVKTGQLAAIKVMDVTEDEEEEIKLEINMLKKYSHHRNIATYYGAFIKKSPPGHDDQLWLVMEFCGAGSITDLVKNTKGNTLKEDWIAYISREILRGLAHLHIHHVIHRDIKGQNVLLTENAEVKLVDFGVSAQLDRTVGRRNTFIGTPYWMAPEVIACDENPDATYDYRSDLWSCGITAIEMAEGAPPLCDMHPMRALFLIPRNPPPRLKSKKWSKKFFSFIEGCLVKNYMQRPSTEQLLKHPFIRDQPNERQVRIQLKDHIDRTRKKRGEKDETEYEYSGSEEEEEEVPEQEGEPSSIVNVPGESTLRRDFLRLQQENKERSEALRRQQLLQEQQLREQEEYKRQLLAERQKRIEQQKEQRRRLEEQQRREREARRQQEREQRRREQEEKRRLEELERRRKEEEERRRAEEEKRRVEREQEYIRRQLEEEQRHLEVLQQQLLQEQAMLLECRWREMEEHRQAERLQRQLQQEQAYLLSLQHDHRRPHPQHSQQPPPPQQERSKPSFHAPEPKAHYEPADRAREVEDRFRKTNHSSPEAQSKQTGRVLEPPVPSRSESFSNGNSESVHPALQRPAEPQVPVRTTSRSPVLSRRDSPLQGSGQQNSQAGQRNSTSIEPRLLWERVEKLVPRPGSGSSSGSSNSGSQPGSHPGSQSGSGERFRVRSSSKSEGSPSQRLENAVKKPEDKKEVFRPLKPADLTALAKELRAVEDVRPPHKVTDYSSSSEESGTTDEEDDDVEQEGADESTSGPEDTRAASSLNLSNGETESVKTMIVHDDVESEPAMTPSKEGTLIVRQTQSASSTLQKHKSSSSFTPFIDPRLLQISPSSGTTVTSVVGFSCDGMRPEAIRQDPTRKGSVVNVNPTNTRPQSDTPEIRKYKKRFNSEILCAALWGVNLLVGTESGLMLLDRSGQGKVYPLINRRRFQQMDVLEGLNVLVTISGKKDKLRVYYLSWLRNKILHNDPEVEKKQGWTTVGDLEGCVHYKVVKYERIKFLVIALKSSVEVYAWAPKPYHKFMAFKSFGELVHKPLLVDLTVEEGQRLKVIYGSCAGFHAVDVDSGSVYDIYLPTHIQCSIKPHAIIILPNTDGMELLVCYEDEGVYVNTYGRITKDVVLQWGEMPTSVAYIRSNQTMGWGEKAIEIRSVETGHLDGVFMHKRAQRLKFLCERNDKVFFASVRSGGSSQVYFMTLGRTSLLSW
# Method: as §1, §2, §3, §4, §6, §7
# MEK1/MAP2K1 (h) = MEK1/MAP2K1 (h) (Homo sapiens (Human), UniProt Q02750); assay: Kinase selectivity panel; format: biochemical; details: duplicate, read-out: % inhibition of control values, MEK1/MAP2K1 (h)
# Method: as §1, §2, §3, §4, §6, §7
# smMLCK (h) (MYLK) = smMLCK (h) (MYLK) (Homo sapiens (Human), UniProt Q15746); assay: Kinase selectivity panel; format: biochemical; details: duplicate, read-out: % inhibition of control values, smMLCK (h) (MYLK)
# Method: as §1, §2, §3, §4, §6, §7
# TAOK2 (TAO1) (h) = TAOK2 (TAO1) (h) (Homo sapiens (Human), UniProt Q9UL54); assay: Kinase selectivity panel; format: biochemical; details: duplicate, read-out: % inhibition of control values, TAOK2 (TAO1) (h)
# Method: as §1, §2, §3, §4, §6, §7
# CDC2/CDK1 (h) (cycB) = CDC2/CDK1 (h) (cycB) (Homo sapiens (Human), UniProt P06493); assay: Kinase selectivity panel; format: biochemical; details: duplicate, read-out: % inhibition of control values, CDC2/CDK1 (h) (cycB)
# Method: as §1, §2, §3, §4, §6, §7
# Src kinase (h) = Src kinase (h) (Homo sapiens (Human), UniProt P12931); assay: Kinase selectivity panel; format: biochemical; details: duplicate, read-out: % inhibition of control values, Src kinase (h)
# Chain of Src kinase (h) (P12931 whole entry, looked up): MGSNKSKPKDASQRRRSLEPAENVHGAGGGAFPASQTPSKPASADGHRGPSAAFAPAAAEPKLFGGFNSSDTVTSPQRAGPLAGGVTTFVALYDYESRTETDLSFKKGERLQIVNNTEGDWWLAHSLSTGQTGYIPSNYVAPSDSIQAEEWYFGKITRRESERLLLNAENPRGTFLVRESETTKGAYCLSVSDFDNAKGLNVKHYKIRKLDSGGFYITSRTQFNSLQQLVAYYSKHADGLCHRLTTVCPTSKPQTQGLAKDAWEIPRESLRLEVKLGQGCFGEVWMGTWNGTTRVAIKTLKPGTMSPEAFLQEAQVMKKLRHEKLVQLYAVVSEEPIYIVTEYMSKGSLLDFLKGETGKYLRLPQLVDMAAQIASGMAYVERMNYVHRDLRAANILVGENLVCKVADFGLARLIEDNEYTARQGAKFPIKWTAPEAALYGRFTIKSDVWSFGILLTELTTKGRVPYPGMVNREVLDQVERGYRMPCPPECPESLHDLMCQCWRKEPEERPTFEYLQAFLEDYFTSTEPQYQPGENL
# Method: as §1, §2, §3, §4, §6, §7
# TRKA (h) = TRKA (h) (Homo sapiens (Human), UniProt P04629); assay: Kinase selectivity panel; format: biochemical; details: duplicate, read-out: % inhibition of control values, TRKA (h)
# Method: as §1, §2, §3, §4, §6, §7
# NEK1 (h) = NEK1 (h) (Homo sapiens (Human), UniProt Q96PY6); assay: Kinase selectivity panel; format: biochemical; details: duplicate, read-out: % inhibition of control values, NEK1 (h)
# Method: as §1, §2, §3, §4, §6, §7
# ERK2 (h) (P42mapk) = ERK2 (h) (P42mapk) (Homo sapiens (Human), UniProt P28482); assay: Kinase selectivity panel; format: biochemical; details: duplicate, read-out: % inhibition of control values, ERK2 (h) (P42mapk)
# Chain of ERK2 (h) (P42mapk) (P28482 whole entry): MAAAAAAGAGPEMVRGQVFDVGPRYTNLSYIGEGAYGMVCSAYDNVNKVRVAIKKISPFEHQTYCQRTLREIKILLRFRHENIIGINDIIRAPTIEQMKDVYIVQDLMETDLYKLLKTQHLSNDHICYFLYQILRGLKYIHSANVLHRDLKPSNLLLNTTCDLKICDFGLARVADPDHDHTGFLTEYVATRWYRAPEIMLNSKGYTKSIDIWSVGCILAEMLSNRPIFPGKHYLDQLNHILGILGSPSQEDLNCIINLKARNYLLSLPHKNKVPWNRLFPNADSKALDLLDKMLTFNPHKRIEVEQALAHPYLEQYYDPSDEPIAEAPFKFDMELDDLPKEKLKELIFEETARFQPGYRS
# Method: as §1, §2, §3, §4, §6, §7
# ERK1 (h) = ERK1 (h) (Homo sapiens (Human), UniProt P27361); assay: Kinase selectivity panel; format: biochemical; details: duplicate, read-out: % inhibition of control values, ERK1 (h)
# Method: as §1, §2, §3, §4, §6, §7
# GSK3beta (h) = GSK3beta (h) (Homo sapiens (Human), UniProt P49841); assay: Kinase selectivity panel; format: biochemical; details: for inhibition at 10 µM: duplicate, read-out: % inhibition of control values, GSK3beta (h); for Selectivity for GSK-3β compared to the other kinases of the panel: panel of 60 kinases, 10 μM
# Chain of GSK3beta (h) (P49841 whole entry): as the sequence (P49841 whole entry) above
# Method: as §1, §2, §3, §4, §6, §7
# CDK5/p35 (h) = CDK5/p35 (h) (Homo sapiens (Human), UniProt Q00535); assay: Kinase selectivity panel; format: biochemical; details: duplicate, read-out: % inhibition of control values, CDK5/p35 (h)
# Chain of CDK5/p35 (h) (Q00535 whole entry): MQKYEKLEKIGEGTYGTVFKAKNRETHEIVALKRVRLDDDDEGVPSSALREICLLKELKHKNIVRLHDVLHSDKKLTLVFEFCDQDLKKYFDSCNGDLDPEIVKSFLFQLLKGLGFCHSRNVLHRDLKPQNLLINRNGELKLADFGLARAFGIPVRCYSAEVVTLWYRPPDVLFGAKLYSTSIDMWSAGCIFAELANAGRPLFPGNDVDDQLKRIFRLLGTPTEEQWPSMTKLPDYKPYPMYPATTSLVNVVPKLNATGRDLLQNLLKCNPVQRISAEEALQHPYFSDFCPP
# Chain of CDK5/p35 (h) (Q15078 whole entry partner): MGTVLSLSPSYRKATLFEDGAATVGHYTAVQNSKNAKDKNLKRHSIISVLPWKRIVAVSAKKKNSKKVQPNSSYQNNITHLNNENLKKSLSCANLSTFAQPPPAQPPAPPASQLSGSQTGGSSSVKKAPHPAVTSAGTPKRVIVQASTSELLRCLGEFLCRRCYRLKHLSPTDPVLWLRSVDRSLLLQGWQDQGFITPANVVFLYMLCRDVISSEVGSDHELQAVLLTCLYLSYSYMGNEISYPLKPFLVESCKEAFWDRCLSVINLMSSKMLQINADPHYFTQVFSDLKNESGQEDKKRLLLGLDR
# Method: as §1, §2, §3, §4, §6, §7
# human GSK-3β [2] = target: T1, human GSK-3β; assay: LanthaScreen TR-FRET Eu Kinase binding and displacement assay; details: five concentrations 100 μM to 10 nM, duplicate
# Method: as §8, §9
# Chain of PCTAIRE1 kinase (h) (Q00536 whole entry): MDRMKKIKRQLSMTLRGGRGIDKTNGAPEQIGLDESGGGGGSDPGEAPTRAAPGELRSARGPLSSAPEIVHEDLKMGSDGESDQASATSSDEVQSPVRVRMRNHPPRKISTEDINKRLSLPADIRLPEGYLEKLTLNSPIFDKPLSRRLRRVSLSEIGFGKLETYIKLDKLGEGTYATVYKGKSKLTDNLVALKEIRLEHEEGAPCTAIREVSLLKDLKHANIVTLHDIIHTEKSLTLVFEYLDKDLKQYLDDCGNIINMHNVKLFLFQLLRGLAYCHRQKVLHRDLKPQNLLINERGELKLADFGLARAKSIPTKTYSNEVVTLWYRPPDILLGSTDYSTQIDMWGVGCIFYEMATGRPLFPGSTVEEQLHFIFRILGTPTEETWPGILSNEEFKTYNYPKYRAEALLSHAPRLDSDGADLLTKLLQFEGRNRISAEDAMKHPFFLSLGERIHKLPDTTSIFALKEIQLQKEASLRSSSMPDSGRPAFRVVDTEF
inhibition at 10 µM (PCTAIRE1 kinase (h)),inhibition at 10 µM (DYRK1a (h)),inhibition at 10 µM (CDK2 (h) (cycA)),IC50 (human GSK-3β [1]),inhibition at 10 µM (IRK (h) (InsR)),inhibition at 10 µM (HGK (h) (MAP4K4)),inhibition at 10 µM (MEK1/MAP2K1 (h)),inhibition at 10 µM (smMLCK (h) (MYLK)),inhibition at 10 µM (TAOK2 (TAO1) (h)),inhibition at 10 µM (CDC2/CDK1 (h) (cycB)),inhibition at 10 µM (Src kinase (h)),inhibition at 10 µM (TRKA (h)),inhibition at 10 µM (NEK1 (h)),inhibition at 10 µM (ERK2 (h) (P42mapk)),inhibition at 10 µM (ERK1 (h)),inhibition at 10 µM (GSK3beta (h)),inhibition at 10 µM (CDK5/p35 (h)),IC50 (human GSK-3β [2]),Structure (SMILES),Selectivity for GSK-3β compared to the other kinases of the panel (GSK3beta (h))
2%,88%,48%,130 nM,0%,21%,27%,26%,16%,6%,9%,1%,0%,33%,31%,96%,21%,–,"COC(=O)c1csc(CN2CCC(CNC(=O)c3n[nH]c4ccc(OC)cc34)CC2)n1 [Compound 7, Methyl 2-{[4-({[(5-methoxy-1H-indazol-3-yl)carbonyl]amino}methyl)piperidin-1-yl]methyl}-1,3-thiazole-4-carboxylate]",good selectivity profile
42%,99%,96%,–,0%,98%,86%,36%,81%,77%,15%,5%,30%,91%,85%,100%,87%,10 nM,"O=C(O)c1coc(CN2CCC(CNC(=O)c3n[nH]c4ccc(-c5cccc(F)c5F)cc34)CC2)n1 [Compound 12, 2-({4-[({[5-(2,3-Difluorophenyl)-1H-indazol-3-yl]carbonyl}amino)methyl]piperidin-1-yl}methyl)-1,3-oxazole-4-carboxylic acid hydrate]",good affinity to GSK-3β when compared to most of other kinases of the same family
